One data set deals with S. pyogenes S B352. In words: IN VITRO antibacterial activity, S. pyogenes S B352. It counts as cell-based. The note with it: Streptococcus pyogenes, SB352; S. pyogenes S B352; nutrient broth, 24 hours at 37° C; read-out: MIC. How it is done: (§1) In the Tables above MIC stands for minimum inhibitory concentration and
(§2) the results were obtained by providing halving dilutions of the test
(§3) compound in nutrient broth (concentrations usually range from 1/10,000 to
(§4) 1/320,000). These solutions are inoculated with the test organism,
(§5) incubated for 24 hours at 37° C and then examined for the presence
(§6) of growth. A test compound found to have a minimum inhibitory
(§7) concentration (MIC) of 1/160,000 is generally considered as a lead.

In a further data set the test system is S. pyogenes R 353. In words: IN VITRO antibacterial activity, S. pyogenes R 353. It counts as cell-based. The note with it: Streptococcus pyogenes, R353; S. pyogenes R 353; nutrient broth, 24 hours at 37° C; read-out: MIC. How it is done:
as §1, §2, §3, §4, §5, §6, §7

A further data set deals with S. fecalis 353. Kind of data set: IN VITRO antibacterial activity, S. fecalis 353. It is filed as cell-based. The conditions noted are these: S. fecalis 353; nutrient broth, 24 hours at 37° C; read-out: MIC. How it is done: as §1, §2, §3, §4, §5, §6, §7
In the next data set the test system is E. Coli 198 (ATCC 1/229). Kind of data set: IN VITRO antibacterial activity, E. Coli 198 (ATCC 1/229). It is filed as cell-based. The conditions noted are these: Escherichia coli, ATCC1; E. Coli 198 (ATCC 1/229); nutrient broth, 24 hours at 37° C; read-out: MIC. How it is done:
as §1, §2, §3, §4, §5, §6, §7

For a further data set, the system named is A. aerogenes 357. In words: IN VITRO antibacterial activity, A. aerogenes 357. The conditions noted are these: Klebsiella aerogenes; A. aerogenes 357; nutrient broth, 24 hours at 37° C; read-out: MIC. It is filed as cell-based. How it is done:
as §1, §2, §3, §4, §5, §6, §7

In another data set the test system is S. pullorum 358. Kind of data set: IN VITRO antibacterial activity, S. pullorum 358. The note with it: Salmonella enterica; S. pullorum 358; nutrient broth, 24 hours at 37° C; read-out: MIC. It is filed as cell-based. How it is done:
as §1, §2, §3, §4, §5, §6, §7

Another data set has as its system P. aeruginosa 359. Kind of data set: IN VITRO antibacterial activity, P. aeruginosa 359. The conditions noted are these: Pseudomonas aeruginosa; P. aeruginosa 359; nutrient broth, 24 hours at 37° C; read-out: MIC. It counts as cell-based. How it is done: as §1, §2, §3, §4, §5, §6, §7
Another data set relates to Pr. mirabilis 360. Kind of data set: IN VITRO antibacterial activity, Pr. mirabilis 360. The note with it: Proteus mirabilis; Pr. mirabilis 360; nutrient broth, 24 hours at 37° C; read-out: MIC. It is filed as cell-based. How it is done: as §1, §2, §3, §4, §5, §6, §7
A further data set concerns Pr. vulgaris 316. Kind of data set: IN VITRO antibacterial activity, Pr. vulgaris 316. The note with it: Proteus vulgaris; Pr. vulgaris 316; nutrient broth, 24 hours at 37° C; read-out: MIC. It is filed as cell-based. How it is done:
as §1, §2, §3, §4, §5, §6, §7

The test system of data set [1] is Kl. pneumoniae 855 (ATCC 10081). In words: IN VITRO antibacterial activity, Kl. pneumoniae 855 (ATCC 10081). The note with it: Klebsiella pneumoniae, ATCC10081, nutrient broth, 24 hours at 37° C. It is filed as cell-based. How it is done:
as §1, §2, §3, §4, §5, §6, §7

Data set [2] has as its system S. marcesceus 854 (ATCC → 103). In words: IN VITRO antibacterial activity, S. marcesceus 854 (ATCC → 103). The note with it: S. marcesceus 854 (ATCC → 103); nutrient broth, 24 hours at 37° C; read-out: MIC. It counts as cell-based. How it is done: as §1, §2, §3, §4, §5, §6, §7
Another data set has as its system P. aeruginosa 87442. In words: IN VITRO antibacterial activity against resistant organisms, P. aeruginosa 87442. It counts as cell-based. How it is done: as §1, §2, §3, §4, §5, §6, §7
For a further data set, the system named is P. aeruginosa 377. Kind of data set: IN VITRO antibacterial activity against resistant organisms, P. aeruginosa 377. It is filed as cell-based. How it is done: as §1, §2, §3, §4, §5, §6, §7
Another data set relates to E. coli B989. In words: IN VITRO antibacterial activity against resistant organisms, E. coli B989. It counts as cell-based. The note with it: Escherichia coli; resistant organism E. coli B989; nutrient broth, 24 hours at 37° C; read-out: MIC. How it is done: as §1, §2, §3, §4, §5, §6, §7
A further data set concerns E. coli B1002. Kind of data set: IN VITRO antibacterial activity against resistant organisms, E. coli B1002. It counts as cell-based. The conditions noted are these: Escherichia coli. How it is done:
as §1, §2, §3, §4, §5, §6, §7

The next data set in a line: in vivo. The conditions noted are these: mouse, iv, in mice (i.v), acute toxicity.
The test system of data set [3] is strains of E. Coli resistant to neomycin and paromomycin. In words: Antibacterial activity against resistant E. Coli. It is filed as cell-based. How it is done: as §1, §2, §3, §4, §5, §6, §7
The test system of data set [4] is strains of P. Aeruginosa resistant to neomycin B and paromomycin I. In words: Antibacterial activity against resistant P. Aeruginosa. It is filed as cell-based. How it is done:
as §1, §2, §3, §4, §5, §6, §7

The subject of the next data set is S. pyogenes S. In words: IN VITRO antibacterial activity, S. pyogenes S. It counts as cell-based. The note with it: Streptococcus pyogenes; S. pyogenes S; nutrient broth, 24 hours at 37° C; read-out: MIC. How it is done: as §1, §2, §3, §4, §5, §6, §7
In a further data set the test system is S. pyogenes R. In words: IN VITRO antibacterial activity, S. pyogenes R. It counts as cell-based. The note with it: Streptococcus pyogenes; S. pyogenes R; nutrient broth, 24 hours at 37° C; read-out: MIC. How it is done: as §1, §2, §3, §4, §5, §6, §7
For a further data set, the system named is S. fecalis. Kind of data set: IN VITRO antibacterial activity, S. fecalis. It is filed as cell-based. The note with it: S. fecalis; nutrient broth, 24 hours at 37° C; read-out: MIC. How it is done: as §1, §2, §3, §4, §5, §6, §7
For the next data set, the system named is E. coli 198. In words: IN VITRO antibacterial activity, E. coli 198. It is filed as cell-based. The conditions noted are these: Escherichia coli; E. coli 198; nutrient broth, 24 hours at 37° C; read-out: MIC. How it is done:
as §1, §2, §3, §4, §5, §6, §7

A further data set concerns A. aerogenes. In words: IN VITRO antibacterial activity, A. aerogenes. It counts as cell-based. The note with it: Klebsiella aerogenes; A. aerogenes; nutrient broth, 24 hours at 37° C; read-out: MIC. How it is done: as §1, §2, §3, §4, §5, §6, §7
Another data set deals with S. pullorm. In words: IN VITRO antibacterial activity, S. pullorm. It counts as cell-based. The conditions noted are these: S. pullorm; nutrient broth, 24 hours at 37° C; read-out: MIC. How it is done:
as §1, §2, §3, §4, §5, §6, §7

A further data set concerns P. aeruginosa. In words: IN VITRO antibacterial activity, P. aeruginosa. The conditions noted are these: Pseudomonas aeruginosa; P. aeruginosa; nutrient broth, 24 hours at 37° C; read-out: MIC. It counts as cell-based. How it is done:
as §1, §2, §3, §4, §5, §6, §7

Another data set deals with P. mirabilis. Kind of data set: IN VITRO antibacterial activity, P. mirabilis. It counts as cell-based. The note with it: Proteus mirabilis; P. mirabilis; nutrient broth, 24 hours at 37° C; read-out: MIC. How it is done: as §1, §2, §3, §4, §5, §6, §7
A further data set has as its system K. pneumoniae. Kind of data set: IN VITRO antibacterial activity, K. pneumoniae. It is filed as cell-based. The conditions noted are these: Klebsiella pneumoniae; K. pneumoniae; nutrient broth, 24 hours at 37° C; read-out: MIC. How it is done: as §1, §2, §3, §4, §5, §6, §7
The next data set deals with S. marcesceus. Kind of data set: IN VITRO antibacterial activity, S. marcesceus. It is filed as cell-based. The conditions noted are these: S. marcesceus; nutrient broth, 24 hours at 37° C; read-out: MIC. How it is done: as §1, §2, §3, §4, §5, §6, §7
Another data set relates to E. coli B996. In words: IN VITRO antibacterial activity, E. coli B996 (resistant to Kanamycin and paromomycin). It is filed as cell-based. The conditions noted are these: Escherichia coli, nutrient broth, 24 hours at 37° C. How it is done:
as §1, §2, §3, §4, §5, §6, §7

The structures appear in SMILES notation. Converted amounts (≈) assume the structure as drawn. Where two headings read alike, the source gives them in different places.

What is called MIC is the lowest concentration that inhibits growth of the organism. The LD50 is the dose at which mortality reaches 50%. Lower therefore signals greater toxicity. For `NC[C@@H]1O[C@H](O[C@H]2[C@@H](O)[C@H](O[C@@H]3[C@@H](O)[C@H](N)C[C@H](N)[C@H]3O[C@H]3O[C@H](CN)[C@@H](O)[C@H](O)[C@H]3N)O[C@@H]2CN)[C@H](N)[C@@H](O)[C@@H]1O` [5"-Amino-5"-deoxyneomycin B, 5"-amino-5"-deoxyneomycin B], the MIC with S. pyogenes S B352 is less than 0.1 µg/mL; in the data set with S. pyogenes R 353 it was less than 0.1 µg/mL; with S. fecalis 353, 0.8 µg/mL (≈ 1.3 µM); in the data set with E. Coli 198 (ATCC 1/229), 0.8 µg/mL (≈ 1.3 µM); in the data set on A. aerogenes 357, 0.8 µg/mL (≈ 1.3 µM); in the data set on S. pullorum 358, 0.4 µg/mL (≈ 0.652 µM). The MIC in the data set on P. aeruginosa 359 was 1.6 µg/mL (≈ 2.61 µM); in the data set with Pr. mirabilis 360, 0.8 µg/mL (≈ 1.3 µM); in the data set on Pr. vulgaris 316 it was 0.8 µg/mL (≈ 1.3 µM); in [1] it was 0.4 µg/mL (≈ 0.652 µM); in [2] it was 0.4 µg/mL (≈ 0.652 µM); in the data set on P. aeruginosa 87442 (Pseudomonas aeruginosa, resistant organism P. aeruginosa 87442, nutrient broth, 24 hours at 37° C, read-out: MIC), 0.8 µg/mL (≈ 1.3 µM). Moreover, the MIC was 1.6 µg/mL (≈ 2.61 µM) with P. aeruginosa 377 (Pseudomonas aeruginosa, resistant organism P. aeruginosa 377, nutrient broth, 24 hours at 37° C, read-out: MIC); 1.6 µg/mL (≈ 2.61 µM) in the data set on E. coli B989; 3.2 µg/mL (≈ 5.21 µM) with E. coli B1002 (resistant organism E. coli B1002, nutrient broth, 24 hours at 37° C, read-out: MIC). The LD50 in the data set “in vivo” was 60 to 80 mg/kg. In addition, in [3], the “antibacterial activity against resistant E. Coli” value is “particularly effective”. The “antibacterial activity against resistant P. Aeruginosa” value in data set [4] is reported as “particularly effective”.

Consider `NC[C@@H]1O[C@H](O[C@H]2[C@@H](O)[C@H](O[C@@H]3[C@@H](O)[C@H](N)C[C@H](N)[C@H]3O[C@H]3O[C@H](CO)[C@@H](O)[C@H](O)[C@H]3N)O[C@@H]2CN)[C@H](N)[C@@H](O)[C@@H]1O` [5"-amino-5"-deoxyparomomycin I], for which the MIC with S. pyogenes S is less than 0.2 µg/mL; with S. pyogenes R, 0.4 µg/mL (≈ 0.651 µM); in the data set with S. fecalis it was 6.4 µg/mL (≈ 10.4 µM); in the data set with E. coli 198, 6.4 µg/mL (≈ 10.4 µM); in the data set on A. aerogenes, 1.6 µg/mL (≈ 2.6 µM); in the data set with S. pullorm, 0.8 µg/mL (≈ 1.3 µM). Further, the MIC is 12.5 µg/mL (≈ 20.3 µM) in the data set with P. aeruginosa; 1.6 µg/mL (≈ 2.6 µM) with P. mirabilis; 0.8 µg/mL (≈ 1.3 µM) in the data set with K. pneumoniae; 0.8 µg/mL (≈ 1.3 µM) in the data set with S. marcesceus; 12.5 µg/mL (≈ 20.3 µM) in the data set with E. coli B996. The “antibacterial activity against resistant E. Coli” value in data set [3] was “particularly effective”. Besides, the “antibacterial activity against resistant P. Aeruginosa” value in [4] is “particularly effective”.

In the case of `NC[C@H]1O[C@H](O[C@H]2[C@H](O)[C@@H](O[C@H]3O[C@H](CO)[C@@H](O)[C@H](N)[C@H]3O)[C@H](N)C[C@@H]2N)[C@H](O)[C@@H](O)[C@@H]1O` [Kanamycin], the MIC with P. aeruginosa 87442 (Pseudomonas aeruginosa, 87442, 24 h) was 0.8 µg/mL (≈ 1.65 µM); with P. aeruginosa 377 (Pseudomonas aeruginosa, 377, 24 h), 3.2 µg/mL (≈ 6.6 µM); in the data set with E. coli B989 it was 100 µg/mL (≈ 206 µM); against E. coli B1002 (B1002, 24 h) it was less than 100 µg/mL.
